Results on five compounds are retold here after patent US5155107A, “17β-substituted-4-aza-5α-androstan-3-one derivatives and process for their preparation” (Farmitalia Carlo Erba, priority 1990, dated 1992).

Where two headings read alike, the source gives them in different places.

Assay [1] concerns the target T1, 5α-reductase (particulate fraction of human benign prostatic hypertrophy tissue) (Homo sapiens, UniProt P31213).
T1 construct: homogenates of human benign prostatic hypertrophy tissue as the enzyme source; from tissue; host or cells: human benign prostatic hypertrophy tissue, 40,000×g particulate fraction (nuclei, microsomes, mitochondria)
T1 sequence (P31213 1-254): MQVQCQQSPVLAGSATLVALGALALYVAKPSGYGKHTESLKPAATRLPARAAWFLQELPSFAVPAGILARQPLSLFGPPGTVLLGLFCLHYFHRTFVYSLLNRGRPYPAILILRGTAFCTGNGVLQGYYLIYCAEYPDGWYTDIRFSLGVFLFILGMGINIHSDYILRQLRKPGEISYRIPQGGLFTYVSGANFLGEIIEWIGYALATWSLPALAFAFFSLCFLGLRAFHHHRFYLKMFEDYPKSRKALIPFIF
In words: Inhibition of prostatic 5α-reductase in vitro. Type of assay: biochemical. How it is done:
For example, the inhibitory effect of the compounds of the invention on 5α-reductase was determined in vitro in comparison with progesterone taken as the reference compound, according to the procedure reported herebelow.
Inhibition of 5α-reductase was evaluated using the particulate fraction (containing nuclei, microsomes and mitochondria) from homogenates of human benign prostatic hypertrophy tissue as the enzyme source. The particulate fraction was prepared centrifuging prostate homogenate at 40,000×g. The resulting pellet, washed several times, was resuspended in buffer and stored at -80° C. in aliquots containing ≈10 mg protein/ml.
The assay for 5α-reductase was done in a final volume of 0.5 ml, containing 1 mM dithiothreitol, 40 mM TRIS-HCl buffer pH 5.0, 5 mM NADPH, 1 μM [4-^14 C]testosterone, 0.3 mg of prostate particulate fraction and various concentrations of the inhibitors. After 30 min incubation at 37° C. the reaction was terminated by addition of 1.5 ml diethyl ether and the organic phase was separated, evaporated under N2 and resuspended in ethyl acetate. Testosterone metabolites in this extract were separated in TLC on silica gel F 254 plates (Merck) using chloroform, acetone and n-hexane (2:1:2) as developing solvent system. Radioactivity on the plate was scanned and analyzed from quantitative plots printed by a TLC-analyzer (Berthold). The fractional 5α-reduction of testosterone was calculated by relating the ^14 C-radioactivity in the 5α-reduced metabolites (5α-dihydrotestosterone, 3α- and 3β-androstanediols) regions to the total radioactivity in the testosterone and 5α-reduced metabolites regions.
The concentration of each compound required to reduce control 5α-reductase by 50% (IC50) was determined by plotting % inhibition versus log of inhibitor concentration.
As an example, the potency of three representative compounds of the invention, namely 4-methyl-17β-[N-isopropyl-N-(N-isopropylcarbamoyl)carbamoyl]-4-aza-5α-androstan-3-one (Compound 1), 4-methyl-17β-[N-cyclohexyl-N-(N-cyclohexylcarbamoyl) carbamoyl-4-aza-5α-androstan-3-one (Compound 11) and 4-methyl-17β-[N-isopropyl-N-(N-isopropylthiocarbamoyl)carbamoyl-4-aza-5α-androstan-3-one (Compound 39) are reported in Table 1 in comparison with progesterone.

Assay [2] concerns the target T2, cytoplasmic androgen (rat prostate) receptors (Rattus norvegicus, UniProt P15207).
T2 construct: Prostatic tissue, obtained from adrenalectomized and castrated Sprague-Dawley rats; from tissue; host or cells: prostate cytosol of adrenalectomized and castrated Sprague-Dawley rats
T2 sequence (P15207 1-902): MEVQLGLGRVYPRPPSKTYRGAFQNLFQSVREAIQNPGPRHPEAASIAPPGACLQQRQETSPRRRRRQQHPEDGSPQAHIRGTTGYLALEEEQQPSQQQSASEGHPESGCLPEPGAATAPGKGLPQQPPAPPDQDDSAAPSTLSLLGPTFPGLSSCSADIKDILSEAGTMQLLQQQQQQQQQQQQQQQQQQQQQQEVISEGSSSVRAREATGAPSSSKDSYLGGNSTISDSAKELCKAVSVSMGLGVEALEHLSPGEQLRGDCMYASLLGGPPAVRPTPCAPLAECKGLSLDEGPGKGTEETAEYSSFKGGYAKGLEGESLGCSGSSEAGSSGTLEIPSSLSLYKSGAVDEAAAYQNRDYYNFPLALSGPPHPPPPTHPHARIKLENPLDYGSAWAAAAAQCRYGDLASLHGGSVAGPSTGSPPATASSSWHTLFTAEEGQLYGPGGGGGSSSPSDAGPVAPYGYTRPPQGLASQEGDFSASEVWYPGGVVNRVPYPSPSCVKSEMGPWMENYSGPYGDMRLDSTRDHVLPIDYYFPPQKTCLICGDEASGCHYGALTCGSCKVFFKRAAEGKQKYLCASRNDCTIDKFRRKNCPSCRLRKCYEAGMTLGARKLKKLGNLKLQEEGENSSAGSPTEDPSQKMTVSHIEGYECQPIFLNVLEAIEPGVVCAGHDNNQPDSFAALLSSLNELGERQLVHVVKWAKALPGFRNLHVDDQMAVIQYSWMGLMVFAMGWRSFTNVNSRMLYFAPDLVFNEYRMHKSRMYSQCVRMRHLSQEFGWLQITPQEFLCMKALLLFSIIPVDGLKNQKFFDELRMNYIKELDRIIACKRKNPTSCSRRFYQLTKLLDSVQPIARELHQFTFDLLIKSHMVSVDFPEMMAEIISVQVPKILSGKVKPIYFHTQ
In words: Rat prostate androgen receptor binding (inhibition of 3H-DHT binding). Further details: species or system Sprague-Dawley rats. How it is done:
For their use in androgen- dependent conditions, the 5α-reductase inhibitors, should have a very low intrinsic androgenic activity, which can be shown by the binding affinity to the androgen receptor.
A low binding affinity to the androgen receptor is therefore desirable in a 5α-reductase inhibitor for use in the treatment of androgen dependent conditions.
Binding affinity to cytoplasmic androgen (rat prostate) receptors was determined by standard dextran-coated absorption technique (Raynaud J. P. et al., J. Steroid. Biochem. 6: 615-622, 1975).
Prostatic tissue, obtained from adrenalectomized and castrated Sprague-Dawley rats, was homogenized in 10 mM Tris HCl pH 7.4, containing 1.5 mM EDTA and 1 mM dithiothreitol in motor driven tissue grinders. The homogenate was centrifuged at 10,000×g for 1 h at 4° C.
Aliquots of cytosol 00.2 ml) were incubated for 2 hours at 0° C. with various concentrations of the test compounds, in duplicate, and a fixed amount of ^3 H-dihydrotesterone (DHT) final concentration 1 nM in 0.4 ml of incubation volume).
Then, free radioactivity was absorbed on 0.2 ml of dextran-coated charcoal suspension and after centrifugation at 1,500×g for 10 min., the bound radioactivity in the supernatant was determined by liquid scintillation in Rialuma.
The concentration of each compound required to reduce specific ^3 H-DHT binding by 50% (IC50) was determined from a plot of bound radioactivity versus log of competitor concentration.
In the above test the Compound 1 of the present invention was compared with the same above identified reference compound 4-MA and the obtained results are reported in the following Table 3.

Assay [3] concerns 5α-reductase of rat prostate. The assay is described as follows: Inhibition of prostate growth stimulated by testosterone propionate in castrated rats. Format: in vivo. Conditions: for Inhibition of prostate growth stimulated by testosterone propionate: 7 days, testosterone propionate 0.3 mg/kg/day s.c. The method, then: The compounds of the invention were also tested for their in vivo potency in inhibiting 5α-reductase of rat prostate, according to the following procedure.
Prepuberal 21-day old male rat were castrated via scrotal incision in light ether anaesthesia.
Starting on the seventh day after orchiectomy, the rats were treated with testosterone propionate (0.3 mg/kg/day subcutaneously) for 7 consecutive days to stimulate prostate growth. The 5α-reductase inhibitors were given orally at various doses once daily for 7 days, together with the standard dose of testosterone propionate.
Thus, for example, in the above test the compound 1 of the present invention was compared with the well known 5α-reductase inhibitor 4-methyl-17β-N,N-diethyl-carbamoyl-4-methyl-4-aza-5α-androstan- 3-one, identified as 4-MA and described, e.g., in U.S. Pat. No. 4,377,584) giving the results reported in the following Table 2.

Setting [4] is: human BPH particulate fraction, 1 μM [4-14C]testosterone, pH 5.0, 30 min, 37° C., read-out: Inhibition of prostatic 5α-reductase IC50.

By IC50 is commonly meant the concentration needed to halve the response being measured. For `CC(C)NC(=O)N(C(=O)[C@H]1CC[C@H]2[C@@H]3CC[C@H]4N(C)C(=O)CC[C@]4(C)[C@H]3CC[C@]12C)C(C)C` [Compound 1, 4-methyl-17β-[N-isopropyl-N-(N-isopropylcarbamoyl)carbamoyl]-4-aza-5α-androstan-3-one], the concentration for half-maximal inhibition (IC50) in assay [1] (setting [4]) is 0.055 µM; in assay [2], 150 µM. The “selectivity versus androgen receptor binding” value in assay [2] (Compound 1 versus reference compound 4-MA) is reported as “more selective than the reference compound 4-MA”. Moreover, the “displacement of DHT from the prostatic androgen receptor” value in assay [2] (Table 3) is “displaces DHT from the prostatic androgen receptor only at a very high concentration”. Besides, the “Inhibition of prostate growth stimulated by testosterone propionate” value is listed as 33% in assay [3] (3 mg/kg/day p.o.) and 55% in assay [3] (10 mg/kg/day p.o.).

For `CCN(CC)C(=O)[C@H]1CC[C@H]2[C@@H]3CC[C@H]4N(C)C(=O)CC[C@]4(C)[C@H]3CC[C@]12C` [Compound 4-MA, 4-methyl-17β-N,N-diethyl-carbamoyl-4-methyl-4-aza-5α-androstan-3-one], in assay [2] (4-MA versus Compound 1), the “displaces DHT at a concentration lower than Compound 1 (fold)” value is listed as 60 times lower. Also, the IC50 in assay [2] (rat prostate cytosol, 1 nM 3H-DHT, 2 hours, 0° C., read-out: Inhibition of DHT binding IC50) was found to be 2.5 µM. Also, the entries for the “Inhibition of prostate growth stimulated by testosterone propionate” value in assay [3] (3 mg/kg/day p.o.), in assay [3] (10 mg/kg/day p.o.) and in assay [3] (30 mg/kg/day p.o.) were 1%, 0% and 49%, respectively. For the same compound, in assay [3] (same dose, 10 mg/kg/day oral), the “in vivo effect on the hypertrophic response to testosterone propionate” value is on record as “completely ineffective”.

With `CN1C(=O)CC[C@]2(C)[C@H]3CC[C@]4(C)[C@@H](C(=O)N(C(=O)NC5CCCCC5)C5CCCCC5)CC[C@H]4[C@@H]3CC[C@@H]12` [Compound 11, 4-methyl-17β-[N-cyclohexyl-N-(N-cyclohexylcarbamoyl)carbamoyl]-4-aza-5α-androstan-3-one], the concentration for half-maximal inhibition (IC50) in assay [1] (setting [4]) is 0.041 µM.

As to `CC(C)NC(=S)N(C(=O)[C@H]1CC[C@H]2[C@@H]3CC[C@H]4N(C)C(=O)CC[C@]4(C)[C@H]3CC[C@]12C)C(C)C` [Compound 39, 4-methyl-17β-[N-isopropyl-N-(N-isopropylthiocarbamoyl)carbamoyl]-4-aza-5α-androstan-3-one], the IC50 in assay [1] (setting [4]) was 0.011 µM.

In assay [1], `CC(=O)[C@H]1CC[C@H]2[C@@H]3CCC4=CC(=O)CC[C@]4(C)[C@H]3CC[C@]12C` [Progesterone, progesterone, reference compound] showed an IC50 of 1.98 µM.
